Test results: patent publication EP0270692A1, “ANTIARRHYTHMIC AGENT” (KYOWA HAKKO KOGYO CO., LTD., priority 1986, dated 1988)
Where a name gives a salt, the structure may show the parent alone. Read-outs that look alike come from different tables or passages of the source.

Assays:
[1] = Test for acute toxicity (MLD; LD50); conditions: mouse, in vivo
Protocol: (§1) Groups of 5 male dd-strain mice weighing 20 ±1 g were used. The test compounds were administered either orally (0.3 mg/kg) or intraperitoneally (0.1 mg/kg).
(§2) The MLD (minimum lethal dose) was determined by observing the mortality for 7 days after the administration.

male dd-strain mice = test: Test for acute toxicity (MLD; LD50); conditions: mouse, in vivo
Protocol: as §1, §2

[2] = test system: chloroform-induced ventricular arrhythmias; test: Mouse chloroform-induced ventricular arrhythmias test; format: in vivo, DD-strain mice; conditions: for Anti-arrhythmic Activity: 100 mg/kg orally, effective when two or more of three examples kept 720 or less heart beat/min for 30 seconds
Protocol: Antiarrhythmic activity was examined according to mouse chloroform-induced ventricular arrhythmias test.
DD-strain mice weighing 18 -22 g were abstinent from food and water for 4-5 hours and antiarrhythmic activity was examined according to the Block's method [Life Science 28, 2623 (1981)]. Drugs tested were orally administered (100 mg/kg) and the mice were exposed to chloroform. After stop of respiration, electrocardiogram was measured according to standard limb leading method. The case where 720 or less heart beat/min was maintained for 30 seconds was regarded as effective.
The test compound was judged as being effective when two or more examples were effective among three examples.

pupil size = test: Mydriasis activity test (anticholine activity); format: in vivo, Male dd-strain mice; conditions: oral; dose required to double the pupil size 30 minutes after administration
Text: (§3) In Table 2, Test Nos. 1 and 4 are tests on antiarrhythmic activity and Test No. 3, on anticholine activity and Test No. 5, on side effect. What is meant by the small ratio of Test No. 1 to that of Test No. 3 and the small ratio of Test No. 4 to that of Test No. 5 is that the compound has high therapeutic ratio (wide safety margin).

left atrium [3] = test: Prolongation of effective refractory period in excised left atrium; design: species or system Male Hartley-strain guinea pigs; conditions: Cavia porcellus; guinea pig left atrium in Krebs-Henseleit solution, 31 ± 1°C; read-out: The concentration required to prolong effective refractory period by 30%
Text: as §3

left atrium [4] = test: Reduction of amplitude of myocardial contractile force in excised left atrium; design: species or system Male Hartley-strain guinea pigs
Text: In Table 2, Test Nos. 1 and 4 are tests on antiarrhythmic activity and Test No. 3, on anticholine activity and Test No. 5, on side effect.

| Structure (SMILES) | LD50 at 72 h ([1]; iv, read-out: Acute toxicity test LD50 iv) | LD50 at 72 h ([1]; po, read-out: Acute toxicity test LD50 po) | Acute Toxicity MLD i.p. (male dd-strain mice; ip) | Acute Toxicity MLD p.o. (male dd-strain mice; po) | Anti-arrhythmic Activity [2] | ED50 ([2]; mouse, oral, read-out: Chloroform-induced ventricular antiarrhythmic activity test ED50) | Mydriasis activity test ED100 (pupil size) | EC30 (left atrium [3]) | The concentration required to reduce the amplitude of myocardial contractile force by 30% (left atrium [4]; guinea pig left atrium in Krebs-Henseleit solution, 31 ± 1°C) | 5/4 (ratio) (left atrium [4]; ratio of Test No. 5 (contractile force) to Test No. 4 (refractory period)) |
| --- | --- | --- | --- | --- | --- | --- | --- | --- | --- | --- |
| CCN(CC)CCNC1c2cc(OC)ccc2OCc2ncccc21 (centres unmarked) [1.5 Fumarate of Compound 1] | 93 mg/kg | > 1000 mg/kg | more than 100 mg/kg | more than 300 mg/kg | Effective | 80 mg/kg | 235 mg/kg | 4.9 µg/mL | 110 µg/mL | 22.4 |
| CCN(CC)CCNC1c2cc(C)ccc2OCc2ncccc21 (centres unmarked) [5-[2-diethylamino)-ethyl]amino-7-methyl-5,11-dihydro[1]benz-oxepino[3,4-b]pyridine, reference compound] | – | – | – | – | ^*3 Ineffective | – | – | – | – | – |
